Test results: patent publication US20110059114A1, “Compositions and Methods for the Treatment of Radioresistant Glioma Stem Cells” (DUKE UNIVERSITY, priority 2009, published 2011)
pIC50: −log10 of the molar value.

Columns and labels:
[1] = test system: T4302 CD133+ glioma stem cells; experiment: Growth curve, CellTiter-Glo Luminescent Cell Viability Assay; format: cell-based, human; details: without radiation treatment, day five; 2 μM DAPT or 0.5 μM L685,458
Text: (§1) FIG. 1 is a series of graphs illustrating that γ-secretase inhibitors reduce cell growth and clonogenic survival of glioma stem cells following radiation. (A) T4302 CD133+ glioma stem cells were transfected with a Notch-responsive luciferase reporter (RBP-JK reporter) pre-mixed with the vector directing constitutive expression of Renilla luciferase. Cells were left unirradiated or irradiated at 3 Gy, and were then collected to measure luciferase activities at time points as indicated. […] The relative mRNA levels of Hes2 were determined by quantitative real-time PCR at the time points as indicated. […] Total viable cell numbers were then determined by the CellTiter-Glo Luminescent Cell Viability Assay (Promega) for the following five days. […] Cells were then plated to form neurospheres, and the surviving fractions were determined as described in methods. […] (F,G) Neurosphere formation of T3359 and T4105 CD 133+ cells treated with GSIs alone, 3-Gy radiation alone, or the combination was determined as described in FIG. 1E. *: p<0.05 by Student's t-test; #: p<0.001 by one-way ANOVA.
Growth Curve, caspase 3/7 assay, and clonogenic survival assay. […] Cell number was measured for 5 days using the CellTiter-Glo assay kit (Promega, Madison, […].). […]

CD133+ glioma stem cells = experiment: Clonogenic survival assay (neurosphere formation); format: cell-based, human; details: T4302, 3-Gy radiation
Text: as §1
To measure clonogenic survival, CD133+ glioma cells were plated in 24-well plates at 50 cells per well for the sham-irradiated groups, 100 cells per well for cells irradiated at 1 Gy, or 500 cells per well for cells irradiated at 2 or 3 Gy. […] Fourteen days after plating, neurospheres containing more than 50 cells were scored. […]

Chk1 and Chk2 = experiment: Immunoblotting of activating phosphorylation of Chk1 and Chk2; format: cell-based, human; details: following radiation, pretreated 24 hours
Procedure: (A) T4302 CD133+ cells were pretreated with DPAT or L685,458 for 24 hours prior radiation. One hour after radiation exposure, cells were harvested. The levels of activating phosphorylation of Chk1 and Chk2 were assessed by immunoblotting. (B) T4302 CD133+ cells were treated with 2 μM DAPT at 4, 24 hours prior to radiation (−24 hrs, or -4 hrs), or at 0, 4, 24 hours after radiation. Relative caspase 3/7 activities were measured 3 days after radiation exposure. *: p<0.001 by Student's t-test.
Antibodies, DNA constructs, lentiviruses and other reagents. The antibodies purchased from Cell Signaling Technology (Danvers, M A) include phosphor-S296-Chk1 (2349), total Chk1 (2345), phosphor-T68-Chk2 (2661), total Chk2 (2662), phospho-5473 Akt (#9271), total Akt (#9272), PTEN (#9556), phospho-S15-p53 (#9286), Bcl-2 (#2870), Bcl-xL (#2764), Mcl-1 (#4572), Puma (#4976). Other antibodies used in this study are p53 antibody (#sc-126, Santa Cruz Biotechnology, Santa Cruz, Calif.), and actin antibody (Millipore, Billerica, Mass.). The pcDNA3-Notch1 construct was kindly provided by Dr. Spyros Artavanis-Tsakonas, Harvard University. The coding sequences of intracellular domain of Notch1 (amino acid residues 1744-2556) was amplified by PCR and subcloned into the lentiviral vector pCDH-CMV-EF1-puro (System Biosciences, Mountain View, Calif.) through the EcoRI and NotI sites. […]

γ-secretase = details: as suggested by the manufacturer; cited from earlier work

Question: Which “sham-treated cells more than GSI-treated cells (total cell number)” value [1] does the source give for `CC(NC(=O)Cc1cc(F)cc(F)c1)C(=O)NC(C(=O)OC(C)(C)C)c1ccccc1` [DAPT, N-[N-(3,5-Difluorophenacetyl-L-alanyl)]-S-phenylglycine t-Butyl Ester] here?
Answer: 25%

Question: And the “clonogenic survival of irradiated NICD2-expressing cells” value (CD133+ glioma stem cells)?
Answer: did not significantly alter

Question: And the “activating phosphorylation of Chk1 or Chk2” value (Chk1 and Chk2)?
Answer: Neither of DAPT or L685,458 significantly altered

Question: What about the pIC50 (γ-secretase) of the same molecule?
Answer: 6.70
